Experimental data: patent US20230085307A1, “PYRIDAZINONE COMPOUND AND HERBICIDE” (NISSAN CHEMICAL CORPORATION, priority 2019, published 2023)

Legend:
persian speedwell = assay: Test Example 4: herbicidal effect by soil treatment (Table 19, symbol R); format: in vivo, Persian speedwell (Veronica persica); conditions: amount of applied herbicide 320 g/ha
In short: (§1)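 Soil-surface application: an emulsion agent diluted with water to the predetermined dose is sprayed uniformly over seeds lying under roughly 1.5 cm of sterilized diluvial soil. Boxes stay in a greenhouse at 25° C. to 30° C. Three weeks later, each species is graded on previously defined criteria.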

windgrass = assay: Test Example 4: herbicidal effect by soil treatment (Table 19, symbol L); format: in vivo, windgrass (Apera spica-venti); conditions: amount of applied herbicide 320 g/ha
In short: as §1

oval-leafed pondweed [1] = assay: Test Example 1: herbicidal activity, application before weed generation under submerged conditions (Table 16, symbol C); format: in vivo, oval-leafed pondweed (Monochoria vaginalis); conditions: 320 g/ha applied herbicide
In short: (§2)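 Alluvial soil was flooded to 4 cm depth, weed seeds were sown mixed and 2.5-leaf rice seedlings were transplanted. On sowing day, the compound's emulsion, diluted in water to a set dose, was applied to the water surface. Plants grew at 25–30 °C and were scored 0–5 after three weeks.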

oval-leafed pondweed [2] = assay: Test Example 2: herbicidal activity, application during weed generation under submerged conditions (Table 17, symbol C); format: in vivo, oval-leafed pondweed (Monochoria vaginalis); conditions: AAH 320 g/ha; application during weed generation, submerged conditions
In short: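 Alluvial soil in Wagner pots was flooded to 4 cm depth and sown with the three weeds together; pots were kept in a greenhouse at 25° C. to 30° C. At the one to two leaf stage, an emulsion formulation diluted in water to a set rate went onto the water surface; scored three weeks later.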

lambsquarters = assay: Test Example 5: herbicidal effect by foliage application, plastic box (Table 20, symbol O); format: in vivo, lambsquarters (Chenopodium album); conditions: foliage application; for herbicidal effect grade, O: lambsquarters: 320 g/ha, three weeks after application; for O: lambsquarters, herbicidal effect (criteria 0-5): AAH 320 g/ha, evaluated three weeks after application
In short: (§3)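 Sow seeds spot-wise in sterilized diluvial soil; cover with ~1.5 cm soil. Grow 14 days in greenhouse, 25° C. to 30° C. Spray foliage with emulsion diluted to predetermined amount. Rate effect after 3 weeks.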

southern crabgrass = assay: Test Example 5: herbicidal effect by foliage application, plastic box (Table 20, symbol F); format: in vivo, southern crabgrass (Digitaria ciliaris); conditions: foliage application; for herbicidal effect grade, F: southern crabgrass: 320 g/ha, three weeks after application; for F: southern crabgrass, herbicidal effect (criteria 0-5): AAH 320 g/ha, evaluated three weeks after application
In short: as §3

barnyard grass = assay: Test Example 5: herbicidal effect by foliage application, plastic box (Table 20, symbol H); format: in vivo, barnyard grass (Echinochloa crus-galli); conditions: foliage application; for herbicidal effect grade, H: barnyard grass: 320 g/ha, three weeks after application; for H: barnyard grass, herbicidal effect (criteria 0-5): AAH 320 g/ha, evaluated three weeks after application
In short: as §3

Chinese sprangletop = assay: Test Example 3: herbicidal effect by foliage application, Wagner pot (Table 18, symbol D); format: in vivo, chinese sprangletop (Leptochloa chinensis); conditions: for herbicidal effect on D (Chinese sprangletop), rating 0-5: 320 g/ha; for herbicidal effect on D: Chinese sprangletop: amount of applied herbicide 320 g/ha
In short: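 Plants were sown in alluvial soil held under 0.1–0.5 cm standing water and grown 14 days in a greenhouse at 25–30 °C. An emulsifiable formulation, water-diluted to the set dose, was then sprayed onto the foliage, and effects were scored three weeks later using previously defined criteria.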

blackgrass = assay: Test Example 4: herbicidal effect by soil treatment (Table 19, symbol J); format: in vivo, blackgrass (Alopecurus myosuroides); conditions: amount of applied herbicide 320 g/ha
In short: as §1

Japanese bulrush = assay: Test Example 1: herbicidal activity, application before weed generation under submerged conditions (Table 16, symbol B); format: in vivo, Japanese bulrush (Schoenoplectus juncoides); conditions: 320 g/ha applied herbicide
In short: as §2

late watergrass = assay: Test Example 1: herbicidal activity, application before weed generation under submerged conditions (Table 16, symbol A); format: in vivo, late watergrass (Echinochloa oryzicola); conditions: 320 g/ha applied herbicide
In short: as §2

| SMILES | herbicidal effect rating, R: persian speedwell (persian speedwell) | herbicidal effect rating, L: windgrass (windgrass) | Herbicidal effect on C: oval-leafed pondweed (grade 0-5) (oval-leafed pondweed [1]) | herbicidal effect rating, C: oval-leafed pondweed (oval-leafed pondweed [2]) | herbicidal effect grade, O: lambsquarters (lambsquarters) | herbicidal effect grade, F: southern crabgrass (southern crabgrass) | herbicidal effect grade, H: barnyard grass (barnyard grass) | herbicidal effect on D (Chinese sprangletop), rating 0-5 (Chinese sprangletop) | herbicidal effect rating, J: blackgrass (blackgrass) | Herbicidal effect on B: Japanese bulrush (grade 0-5) (Japanese bulrush) | Herbicidal effect on A: late watergrass (grade 0-5) (late watergrass) | herbicidal effect on R: persian speedwell (persian speedwell) | herbicidal effect on L: windgrass (windgrass) | O: lambsquarters, herbicidal effect (criteria 0-5) (lambsquarters) | F: southern crabgrass, herbicidal effect (criteria 0-5) (southern crabgrass) | H: barnyard grass, herbicidal effect (criteria 0-5) (barnyard grass) | herbicidal effect on D: Chinese sprangletop (Chinese sprangletop) | herbicidal effect on J: blackgrass (blackgrass) |
| --- | --- | --- | --- | --- | --- | --- | --- | --- | --- | --- | --- | --- | --- | --- | --- | --- | --- | --- |
| CCCC(=O)Oc1c(C)nn(C)c(=O)c1-c1c(-c2ccc(OC(C)C)cc2)sc2ccccc12 [1-021] | 5 (Herbicidal rate of 90% or more (almost completely withered)) | 0 (Herbicidal rate of 5% or less (almost no effect)) | 4 (Herbicidal rate of 70% or more and less than 90%) | 0 (Herbicidal rate of 5% or less (almost no effect)) | 1 (Herbicidal rate of 5% or more and less than 20%) | 3 (Herbicidal rate of 40% or more and less than 70%) | 4 (Herbicidal rate of 70% or more and less than 90%) | 1 (Herbicidal rate of 5% or more and less than 20%) | 0 (Herbicidal rate of 5% or less (almost no effect)) | 5 (Herbicidal rate of 90% or more (almost completely withered)) | 4 (Herbicidal rate of 70% or more and less than 90%) |  |  |  |  |  |  |  |
| COc1ccc(-c2sc3ccccc3c2-c2c(O)c(C)nn(C)c2=O)cc1OC [1-072] | 5 (Herbicidal rate of 90% or more (almost completely withered)) | 0 (Herbicidal rate of 5% or less (almost no effect)) | 0 (Herbicidal rate of 5% or less (almost no effect)) | 5 (Herbicidal rate of 90% or more (almost completely withered)) | 5 (Herbicidal rate of 90% or more (almost completely withered)) | 5 (Herbicidal rate of 90% or more (almost completely withered)) | 5 (Herbicidal rate of 90% or more (almost completely withered)) | 5 (Herbicidal rate of 90% or more (almost completely withered)) | 0 (Herbicidal rate of 5% or less (almost no effect)) | 3 (Herbicidal rate of 40% or more and less than 70%) | 3 (Herbicidal rate of 40% or more and less than 70%) |  |  |  |  |  |  |  |
| Cc1nn(C)c(=O)c(-c2c(-c3ccc4c(c3)OCO4)sc3ccccc23)c1O [1-087] | 5 (Herbicidal rate of 90% or more (almost completely withered)) | 0 (Herbicidal rate of 5% or less (almost no effect)) | 0 (Herbicidal rate of 5% or less (almost no effect)) | 3 (Herbicidal rate of 40% or more and less than 70%) | 3 (Herbicidal rate of 40% or more and less than 70%) | 5 (Herbicidal rate of 90% or more (almost completely withered)) | 4 (Herbicidal rate of 70% or more and less than 90%) | 3 (Herbicidal rate of 40% or more and less than 70%) | 0 (Herbicidal rate of 5% or less (almost no effect)) | 1 (Herbicidal rate of 5% or more and less than 20%) | 3 (Herbicidal rate of 40% or more and less than 70%) |  |  |  |  |  |  |  |
| C=C(C)C(=O)Oc1c(C)nn(C)c(=O)c1-c1c(-c2ccc(OC(F)F)cc2)sc2ccc(F)cc12 [2-281] |  |  | 4 (Herbicidal rate of 70% or more and less than 90%) | 5 (Herbicidal rate of 90% or more (almost completely withered)) |  |  |  |  |  | 5 (Herbicidal rate of 90% or more (almost completely withered)) | 5 (Herbicidal rate of 90% or more (almost completely withered)) | 5 (Herbicidal rate of 90% or more (almost completely withered)) | 3 (Herbicidal rate of 40% or more and less than 70%) | 5 (Herbicidal rate of 90% or more (almost completely withered)) | 4 (Herbicidal rate of 70% or more and less than 90%) | 5 (Herbicidal rate of 90% or more (almost completely withered)) | 3 (Herbicidal rate of 40% or more and less than 70%) |  |
| Cc1nn(C)c(=O)c(-c2c(-c3ccc(OC(F)F)cc3)sc3ccc(F)cc23)c1OC(=O)c1cccs1 [2-288] |  |  | 4 (Herbicidal rate of 70% or more and less than 90%) | 3 (Herbicidal rate of 40% or more and less than 70%) |  |  |  |  |  | 5 (Herbicidal rate of 90% or more (almost completely withered)) | 5 (Herbicidal rate of 90% or more (almost completely withered)) | 5 (Herbicidal rate of 90% or more (almost completely withered)) |  | 5 (Herbicidal rate of 90% or more (almost completely withered)) | 2 (Herbicidal rate of 20% or more and less than 40%) | 5 (Herbicidal rate of 90% or more (almost completely withered)) | 4 (Herbicidal rate of 70% or more and less than 90%) | 0 (Herbicidal rate of 5% or less (almost no effect)) |
| COCCOC(=O)Oc1c(C)nn(C)c(=O)c1-c1c(-c2ccc(OC(F)F)cc2)sc2ccc(F)cc12 [2-295] |  |  | 2 (Herbicidal rate of 20% or more and less than 40%) | 3 (Herbicidal rate of 40% or more and less than 70%) |  |  |  |  |  | 3 (Herbicidal rate of 40% or more and less than 70%) | 4 (Herbicidal rate of 70% or more and less than 90%) | 5 (Herbicidal rate of 90% or more (almost completely withered)) |  | 5 (Herbicidal rate of 90% or more (almost completely withered)) | 4 (Herbicidal rate of 70% or more and less than 90%) | 5 (Herbicidal rate of 90% or more (almost completely withered)) | 4 (Herbicidal rate of 70% or more and less than 90%) | 4 (Herbicidal rate of 70% or more and less than 90%) |
| COCCSCc1ccc(-c2sc3ccc(F)cc3c2-c2c(O)c(C)nn(C)c2=O)cc1 [2-327] |  |  | 3 (Herbicidal rate of 40% or more and less than 70%) | 0 (Herbicidal rate of 5% or less (almost no effect)) |  |  |  |  |  | 3 (Herbicidal rate of 40% or more and less than 70%) | 3 (Herbicidal rate of 40% or more and less than 70%) | 5 (Herbicidal rate of 90% or more (almost completely withered)) | 0 (Herbicidal rate of 5% or less (almost no effect)) | 5 (Herbicidal rate of 90% or more (almost completely withered)) | 4 (Herbicidal rate of 70% or more and less than 90%) | 5 (Herbicidal rate of 90% or more (almost completely withered)) | 3 (Herbicidal rate of 40% or more and less than 70%) |  |
